Laboratory results reported in patent publication US20050171116A1, “Enhancing the efficacy of tubercular drugs” (priority 2004, published 2005).

How the values were obtained:
Format in all cases: cell-based, Mycobacterium Tuberculosis
Conditions in all cases: LJ medium, in vitro
[1] = system: Multi-Drug-Resistant strains of MTB
[2] = system: Rifampicin-resistant strains of MTB
[3] = system: Isoniazid-Resistant strains of MTB

Measured: antibacterial efficacy

Cc1c(C)c2c(c(C)c1O)CC[C@@](C)(CCC[C@H](C)CCC[C@H](C)CCCC(C)C)O2 [Factor Alpha tx, α-tocopherol]
effective: all assays above
